According to ChEMBL document CHEMBL5210121, “Affinity On-target Cellular Literature for EUbOPEN Chemogenomics Library wave 3” (2023):
Blank lines part the entries; values can stand above or below the compound they belong to.

Tests used:
Protein AF-9 [1] = target: T1, Protein AF-9 (Homo sapiens, UniProt P42568)
Protein AF-9 [2] = target: T1, Protein AF-9; experiment: Affinity On-target Cellular interaction (NanoBRET assay (HEK293T cells)) EUB0000732a MLLT3; design: mode of action Negative control for PFI-6, recommended concentration 1 uM
[3] = target: T2, NADH dehydrogenase [ubiquinone] iron-sulfur protein 2, mitochondrial (Homo sapiens, UniProt O75306); experiment: Affinity On-target Cellular interaction (Cellular activity assay (measurement of ATP levels in presence of complex II substrate succinate in H1299 cells)) EUB0000752a NDUFS2; type: cell-based; design: mode of action Inhibitor, recommended concentration 1 uM
Protein ENL = Protein ENL (Homo sapiens, UniProt Q03111); experiment: Affinity On-target Cellular interaction (NanoBRET assay (HEK293T cells)) EUB0000283b MLLT1; design: mode of action Inhibitor, recommended concentration 1 uM
[4] = target: Protein farnesyltransferase subunit beta (Homo sapiens, UniProt P49356); experiment: Affinity On-target Cellular interaction (Western Blot (inhibition of Ras in NIH 3T3 H-Ras cells)) EUB0000289c FNTB; type: cell-based; design: mode of action Inhibitor, recommended concentration 1 uM
[5] = target: T2, NADH dehydrogenase [ubiquinone] iron-sulfur protein 2, mitochondrial; experiment: Affinity On-target Cellular interaction (Cellular activity assay (measurement of ATP levels in presence of complex II substrate succinate in H1299 cells)) EUB0000748a NDUFS2; type: cell-based; design: mode of action Negative control for BAY-179, recommended concentration 1 uM
[6] = Affinity On-target Cellular interaction (Measles Virus Inhibition Assay) EUB0000745a DHODH
[7] = target: Cytochrome P450 11B2, mitochondrial (Homo sapiens, UniProt P19099); experiment: Affinity On-target Cellular interaction (HTRF-based assay (V79 cell lines, CisBio)) EUB0000733a CYP11B2; design: mode of action Negative control for MSD-CYP11B2, recommended concentration 100 nM
[8] = Affinity On-target Cellular interaction (Cell-based assay) EUB0000315b MGAT2

T2 sequence (O75306 whole entry): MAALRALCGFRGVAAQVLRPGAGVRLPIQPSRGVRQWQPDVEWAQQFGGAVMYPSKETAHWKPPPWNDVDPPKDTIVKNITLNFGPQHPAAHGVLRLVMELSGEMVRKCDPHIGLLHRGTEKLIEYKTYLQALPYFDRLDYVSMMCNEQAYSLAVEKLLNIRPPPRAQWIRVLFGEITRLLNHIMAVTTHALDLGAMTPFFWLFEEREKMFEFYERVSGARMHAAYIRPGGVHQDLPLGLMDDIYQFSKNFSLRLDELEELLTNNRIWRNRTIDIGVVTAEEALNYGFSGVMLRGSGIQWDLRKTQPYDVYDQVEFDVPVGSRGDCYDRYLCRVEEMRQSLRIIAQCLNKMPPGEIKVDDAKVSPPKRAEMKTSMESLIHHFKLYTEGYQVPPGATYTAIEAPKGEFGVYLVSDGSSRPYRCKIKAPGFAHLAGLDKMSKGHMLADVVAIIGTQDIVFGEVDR
T1 sequence (P42568 whole entry): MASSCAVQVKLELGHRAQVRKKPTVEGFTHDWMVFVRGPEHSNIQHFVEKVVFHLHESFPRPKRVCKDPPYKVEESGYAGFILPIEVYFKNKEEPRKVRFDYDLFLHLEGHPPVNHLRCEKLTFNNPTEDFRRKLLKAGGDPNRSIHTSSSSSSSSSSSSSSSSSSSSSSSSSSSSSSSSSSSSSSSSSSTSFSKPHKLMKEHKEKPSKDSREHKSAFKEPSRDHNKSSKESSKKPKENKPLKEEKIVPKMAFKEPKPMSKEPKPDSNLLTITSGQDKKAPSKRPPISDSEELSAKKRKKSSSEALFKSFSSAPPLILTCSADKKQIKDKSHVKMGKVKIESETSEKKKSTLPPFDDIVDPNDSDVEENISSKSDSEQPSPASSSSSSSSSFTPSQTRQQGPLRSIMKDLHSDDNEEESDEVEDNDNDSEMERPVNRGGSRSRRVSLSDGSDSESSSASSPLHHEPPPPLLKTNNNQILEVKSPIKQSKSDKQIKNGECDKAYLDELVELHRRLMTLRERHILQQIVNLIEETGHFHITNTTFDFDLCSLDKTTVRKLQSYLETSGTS
Cytochrome P450 11B2, mitochondrial, sequence (P19099 whole entry): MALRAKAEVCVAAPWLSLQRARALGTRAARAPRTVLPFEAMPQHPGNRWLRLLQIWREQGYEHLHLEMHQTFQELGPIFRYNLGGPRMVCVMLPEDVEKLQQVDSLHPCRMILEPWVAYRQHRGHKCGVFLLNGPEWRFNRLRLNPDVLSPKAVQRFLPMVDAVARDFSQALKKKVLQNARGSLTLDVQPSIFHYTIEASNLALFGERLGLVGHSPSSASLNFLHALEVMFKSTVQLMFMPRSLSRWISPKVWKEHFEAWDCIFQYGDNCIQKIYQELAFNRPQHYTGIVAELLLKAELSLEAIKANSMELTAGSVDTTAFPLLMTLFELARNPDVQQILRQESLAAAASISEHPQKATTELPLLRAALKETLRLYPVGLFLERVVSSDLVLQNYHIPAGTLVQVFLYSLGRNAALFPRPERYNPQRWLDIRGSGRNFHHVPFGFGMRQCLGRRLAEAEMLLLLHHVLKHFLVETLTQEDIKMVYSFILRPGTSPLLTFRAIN
Protein farnesyltransferase subunit beta, sequence (P49356 whole entry): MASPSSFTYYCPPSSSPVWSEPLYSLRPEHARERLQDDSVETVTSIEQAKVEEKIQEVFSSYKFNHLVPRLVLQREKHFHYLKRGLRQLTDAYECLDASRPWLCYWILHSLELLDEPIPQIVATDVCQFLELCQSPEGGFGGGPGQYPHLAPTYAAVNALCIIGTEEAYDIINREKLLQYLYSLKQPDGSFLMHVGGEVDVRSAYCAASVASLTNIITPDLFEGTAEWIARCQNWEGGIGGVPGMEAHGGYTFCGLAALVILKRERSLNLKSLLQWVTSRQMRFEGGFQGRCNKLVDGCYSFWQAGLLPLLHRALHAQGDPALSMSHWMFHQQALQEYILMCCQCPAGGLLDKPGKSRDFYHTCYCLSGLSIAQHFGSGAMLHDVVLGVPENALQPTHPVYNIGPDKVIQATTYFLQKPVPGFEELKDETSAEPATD
Protein ENL, sequence (Q03111 whole entry): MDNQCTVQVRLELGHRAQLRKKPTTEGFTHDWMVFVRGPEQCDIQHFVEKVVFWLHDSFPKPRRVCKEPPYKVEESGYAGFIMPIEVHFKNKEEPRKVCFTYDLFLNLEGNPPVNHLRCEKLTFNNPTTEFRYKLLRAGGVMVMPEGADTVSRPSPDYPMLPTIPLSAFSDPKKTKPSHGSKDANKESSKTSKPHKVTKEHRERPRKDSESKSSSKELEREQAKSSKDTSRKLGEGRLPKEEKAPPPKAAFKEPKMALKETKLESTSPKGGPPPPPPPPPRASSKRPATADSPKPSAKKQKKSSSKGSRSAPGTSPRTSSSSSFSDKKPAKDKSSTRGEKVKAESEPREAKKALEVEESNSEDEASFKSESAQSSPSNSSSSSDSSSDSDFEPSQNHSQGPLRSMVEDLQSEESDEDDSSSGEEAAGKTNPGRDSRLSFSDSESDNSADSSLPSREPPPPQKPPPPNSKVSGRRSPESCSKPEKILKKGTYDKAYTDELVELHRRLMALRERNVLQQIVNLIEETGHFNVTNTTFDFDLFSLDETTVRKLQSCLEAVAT

IC50 [6]: 1.2 µM
SMILES: Cc1c(Oc2ccc(F)cc2)c(OC(C)C)nn1-c1ccc(C2CC2)cn1 [IPP/CNRS-A019]

IC50 [7]: > 10 µM
SMILES: FC(F)(F)c1ccc2c(c1)nc(-c1cccnc1)n2C1CC1 [MSD-CYP11B2-Negative-control]

IC50 [8]: 0.16 µM
SMILES: Cn1nc(C(F)(F)F)cc1-c1cnc(N2CCc3cc(S(=O)(=O)Nc4c(F)cc(Cl)cc4F)cc(N4CCCC4=O)c32)nc1 [TP-020]

Second part, the compound before the results:

SMILES: CN(C)C(=O)c1ccc(-c2cc(C(=O)N[C@@H]3CCc4ccccc43)no2)cc1O
IC50 (Protein AF-9 [1]): 0.76 µM

SMILES: CN(C)C(=O)c1ccc(-c2cc(C(=O)N(C)C3CCCC3)no2)cc1O
IC50 (Protein AF-9 [2]): > 30 µM

SMILES: c1ccc2oc(-c3csc(C4CCN(Cc5nc6ncccc6[nH]5)CC4)n3)cc2c1
IC50 [3]: 0.079 µM

SMILES: C[C@H]1CCCN1Cc1nc2cc(NC(=O)c3ccc4cnccc4c3)ccc2[nH]1
IC50 (Protein ENL): 0.5 µM

SMILES: Cn1cncc1[C@](O)(COc1ccc(C#N)cc1-c1ccc(OC(F)(F)F)cc1)c1ccc(C#N)cc1 [ABT-100]
EC50 [4]: 0.00073 µM

SMILES: Cn1c(-c2csc(C3CCN(CC4=NC5N=CC=CC5N4)CC3)n2)nc2ccccc21 (centres undefined) [BAY-070]
IC50 [5]: > 30 µM
